Laboratory results as given in patent US11858942B2, “Triazolotriazine derivatives as A2A receptor antagonists” (ZHEJIANG VIMGREEN PHARMACEUTICALS, LTD., priority 2018, dated 2024).

The compounds below were run against T1, A2AR (hADORA2A-HEK293 cells) (Homo sapiens, UniProt P29274) (assay: functional cAMP production assay (NECA-stimulated cAMP production, TR-FRET)). Settings: inhibition of NECA (EC80)-stimulated cAMP production in A2AR-expressing HEK293 cells; read-out: A2AR Potency.
T1 construct: expressed in transfected cells; host or cells: HEK293 (hADORA2A-HEK293)
T1 sequence (P29274 whole entry): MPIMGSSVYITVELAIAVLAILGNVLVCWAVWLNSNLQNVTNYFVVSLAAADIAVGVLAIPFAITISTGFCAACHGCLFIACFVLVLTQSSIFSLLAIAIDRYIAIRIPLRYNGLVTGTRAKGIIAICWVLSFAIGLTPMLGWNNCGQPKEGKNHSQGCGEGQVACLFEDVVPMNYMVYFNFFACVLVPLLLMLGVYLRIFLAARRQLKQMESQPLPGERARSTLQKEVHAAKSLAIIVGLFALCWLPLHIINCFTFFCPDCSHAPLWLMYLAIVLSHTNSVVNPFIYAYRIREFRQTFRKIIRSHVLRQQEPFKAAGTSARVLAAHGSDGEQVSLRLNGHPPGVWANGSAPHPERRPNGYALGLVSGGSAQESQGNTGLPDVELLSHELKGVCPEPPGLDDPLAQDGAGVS
Format: cell-based
Description: The antagonistic activities of the triazolotriazine derivatives of the present invention were measured in a functional cAMP production assay. The assay consists of NECA stimulation of cAMP production and its inhibition by A2AR antagonists in A2AR-expressing HEK293 cells (hADORA2A-HEK293). All cells were cultured in complete medium at 37° C. in 5% CO2. The cells were detached with pancreatin and collected at 200 g for 5 min. After resuspending the cells in fresh complete medium, the cell viability is counted using the trypan blue exclusion method. […] After the cells were diluted with Hank's buffered saline solution containing HEPES (5 mM), BSA stabilizer (0.1%) and […] Rolipram (10 μM), cells were loaded into white opaque 384-well plates (˜500 cells/well, 10 μl/well) and incubated with test compound at a suitable concentration range (11 concentrations) for 20 min at room temperature. Then the A2A receptor agonist NECA (final concentration=EC80, which was determined in the same experiment slightly earlier) was added to the sample and the mixture was incubated again for 30 min at 37° C. […] The inhibition rate (%) was calculated according to the following formula. The IC50 values were calculated from concentration−inhibition (%) curves after log transformation.

SMILES | IC50 [nM]
Nc1nc(NCCc2ccc(C(=O)NCCN3CCCC3)cc2)nc2nc(-c3ccco3)nn12 [Example 11, 4-(2-((7-Amino-2-(furan-2-yl)-[1,2,4]triazolo[1,5-a][1,3,5]triazin-5-yl)amino)ethyl)-N-(2-(pyrrolidin-1-yl)ethyl)benzamide] | 43.4
Nc1nc(NCCc2ccc(C(=O)NCCN3CCOCC3)cc2)nc2nc(-c3ccco3)nn12 [Example 12, 4-(2-((7-Amino-2-(furan-2-yl)-[1,2,4]triazolo[1,5-a][1,3,5]triazin-5-yl)amino)ethyl)-N-(2-morpholinoethyl)benzamide] | 27.1
CN1CCN(CCNC(=O)c2ccc(CCNc3nc(N)n4nc(-c5ccco5)nc4n3)cc2)CC1 [Example 13, 4-(2-((7-Amino-2-(furan-2-yl)-[1,2,4]triazolo[1,5-a][1,3,5]triazin-5-yl)amino)ethyl)-N-(2-(4-methylpiperazin-1-yl)ethyl)benzamide] | 33
Nc1nc(NCCc2ccc(C(=O)N3CCC(F)(F)CC3)cc2)nc2nc(-c3ccco3)nn12 [Example 16, (4-(2-((7-Amino-2-(furan-2-yl)-[1,2,4]triazolo[1,5-a][1,3,5]triazin-5-yl)amino)ethyl)phenyl)-(4,4-difluoropiperidin-1-yl)methanone] | 24
Nc1nc(NCCc2ccc(C(=O)N3CCC(F)CC3)cc2)nc2nc(-c3ccco3)nn12 [Example 17, (4-(2-((7-Amino-2-(furan-2-yl)-[1,2,4]triazolo[1,5-a][1,3,5]triazin-5-yl)amino)ethyl)phenyl)-(4-fluoropiperidin-1-yl)methanone] | 7.54
Nc1nc(NCCc2ccc3cnccc3c2)nc2nc(-c3ccco3)nn12 [Example 27, 2-(Furan-2-yl)-N5-(2-(isoquinolin-6-yl)ethyl)-[1,2,4]triazolo[1,5-a][1,3,5]triazine-5,7-diaminee] | 9.08
CNC(=O)c1ccc(CCNc2nc(N)n3nc(-c4ccco4)nc3n2)cc1 [Example 35, 4-(2-(7-Amino-2-(furan-2-yl)-[1,2,4]triazolo[1,5-a][1,3,5]triazin-5-ylamino)ethyl)-N-methylbenzamide] | 13.8
NC(=O)c1ccc(CCNc2nc(N)n3nc(-c4ccco4)nc3n2)cc1 [Example 36, 4-(2-(7-Amino-2-(furan-2-yl)-[1,2,4]triazolo[1,5-a][1,3,5]triazin-5-ylamino)ethyl)benzamide] | 13.3
Nc1nc(NCCc2ccc(C(=O)N3CCCCC3)cc2)nc2nc(-c3ccco3)nn12 [Example 37, (4-(2-(7-Amino-2-(furan-2-yl)-[1,2,4]triazolo[1,5-a][1,3,5]triazin-5-ylamino)ethyl)-phenyl)(piperidin-1-yl)methanone] | 6

Other lines, results leading:

IC50 [nM] | SMILES
19.3 | CC(C)N(C)C(=O)c1ccc(CCNc2nc(N)n3nc(-c4ccco4)nc3n2)cc1 [Example 42, 4-(2-(7-Amino-2-(furan-2-yl)-[1,2,4]triazolo[1,5-a][1,3,5]triazin-5-ylamino)ethyl)-N-isopropyl-N-methylbenzamide]
17.1 | CC(C)(CO)NC(=O)c1ccc(CCNc2nc(N)n3nc(-c4ccco4)nc3n2)cc1 [Example 43, 4-(2-(7-Amino-2-(furan-2-yl)-[1,2,4]triazolo[1,5-a][1,3,5]triazin-5-ylamino)ethyl)-N-(1-hydroxy-2-methylpropan-2-yl)benzamide]
27.4 | Nc1nc(NCCc2ccc(C(=O)N3CCc4ncccc4C3)cc2)nc2nc(-c3ccco3)nn12 [Example 45, (4-(2-(7-Amino-2-(furan-2-yl)-[1,2,4]triazolo[1,5-a][1,3,5]triazin-5-ylamino)ethyl)phenyl)-(7,8-dihydro-1,6-naphthyridin-6(5H)-yl)methanone]
14.5 | Nc1nc(NCCc2ccc(-c3nn[nH]n3)cc2)nc2nc(-c3ccco3)nn12 [Example 125, N5-(4-(2H-Tetrazol-5-yl)phenethyl)-2-(furan-2-yl)-[1,2,4]triazolo[1,5-a][1,3,5]triazine-5,7-diamine]
